# Assay results taken from patent publication US12458572B2, “Homogeneous liquid composition comprising 1,2-octanediol and use thereof” (Minasolve SAS, priority 2020, dated 2025).
# Experiment: Solubility in 1,2-octanediol
# Type: physicochemical
# Conditions: not given
# Description: The solubility of water in 1,2-octanediol exceeds 30% at 40° C. However, mixtures of 1,2-octanediol with water tend to form highly viscous gels at ambient temperature which are hard to handle.
# Glycerol, with glycerine and 1,2,3-trihydroxypropane as well-known alternative names, is a C3 alkanetriol. The solubility of glycerol in 1,2-octanediol exceeds 30%. However, mixtures of 1,2-octanediol and glycerol tend to be highly viscous and might separate at low temperatures. Furthermore, the addition of high amounts of glycerol to skin care formulations may cause a sticky skin-feel.
row,Compound,"solubility of glycerol in 1,2-octanediol"
1,"OCC(O)CO [1,2,3-trihydroxypropane]",exceeds 30%

# Experiment: log POW, n-octanol/water partition coefficient, OECD Test No. 117
# Type: physicochemical
# Conditions: not given
# Description: The partition coefficient between n-octanol and water, also called ‘log POW’ and performed according to OECD Test No. 117 at 25° C., of 1,2-octanediol is 2.1. […] A specialist trained in the art could therefore expect that a mixture of water, 1,2-octanediol and hydrophilic short chain alkanediols and/or alkanetriols would form a hydrophilic phase containing water, and a separate lipophilic phase containing 1,2-octanediol.
# The miscibility of 1,2-octanediol with C3-C4 alkanediols is well-known. However, comparably large amounts of these diols are needed for lowering the melting point of 1,2-octanediol below 15° C. Furthermore, C3-C4 polyols are highly hydrophilic components with a log POW of ≤0, as detailed in the following table (Table 1).
row,Compound,log POW (25° C.)
1,"CC(O)CO (stereo not shown) [1,2-propanediol]",1.07
2,"OCC(O)CO [1,2,3-trihydroxypropane]",−1.75
3,"OCCCCO [1,4-butanediol]",−0.88
4,"CC(O)C(C)O (stereo not shown) [2,3-butanediol]",−0.92

# Same assay, conditions: OECD Test No. 117 at 25° C.
row,Compound,log POW (25° C.)
1,"CC(O)CCO (stereo not shown) [1,3-butanediol]",−0.92
2,"CCCCCCC(O)CO (stereo not shown) [1,2-octanediol]",2.1
3,"CCC(O)CO (stereo not shown) [1,2-butanediol]",−0.59
4,"CC(CO)CO [2-methyl-1,3-propanediol]",−0.6
5,"OCCCO [1,3-propanediol]",0.71
